Measured values reported in patent US11332499B2, “Cyclic peptides and methods of use thereof” (Regents of the University of Minnesota, priority 2018, dated 2022).
Entries after “also recorded” stand apart in the source; their conditions may differ. Bridge positions count the residues as written; N and C are the ends. Square brackets hold non-standard residues; d marks the D form. Dap = NC[C@H](N)C(=O)O

Key:
[1] = test system: rats; settings: ICV administration into rats; cited from earlier work
[2] = target: MC1R (Mus musculus, UniProt Q01727); settings: previously reported; read-out: MC1R agonist potency; cited from earlier work
[3] = target: T1, hMC4R-Kir7.1(M125R) (Homo sapiens, UniProt P32245); assay: Kir7.1 thallium flux assay, HEK293 cells expressing human MC4R and Kir7.1 (M125R); type: cell-based; settings: for fold selective for Kir7.1 signaling over cAMP antagonism / fold selective for cAMP over Kir7.1 signaling: antagonist Ki / Kir7.1 apparent potency
T1 construct: expressed in transfected cells; Kir7.1 tetracycline-induced)
Method: In this assay, the Kir7.1 (M125R) variant was used since it previously was reported to result in higher unitary conductance compared to the native channel.^39
The compound with the highest apparent potency.
HEK293 cells stably expressing the human MC4R and Kir7.1 (M125R) were grown in MEM medium with 10% FBS without antibiotics, suspended in medium plus 1 μg ml^−1 tetracycline (to induce expression of the transfected tet-sensitive Kir7.1 gene) and plated (20 μL) in 384-well poly-D-lysine coated optical bottom plates (BD Biosciences) at 20,000 cells per well. Plates were incubated overnight for 16-24 h in the cell incubator at 37° C., 5% CO2. […] Plates were incubated in the dark for 1 h at room temperature and dye solution was removed. Upon addition of 20 μL 1×HBSS buffer, a liquid handler added 20 μL of ligand solution to entire plate simultaneously (ligands were prepared by serial dilution in 1×HBSS, 20 mM HEPES, 0.1% BSA, pH 7.3). Plates were incubated in the dark for 20 min (unless otherwise indicated). After a baseline reading on a Thallos Plate-reader (Vanderbilt, Tenn.), 10 μL of a thallium solution (1×HBSS, 20 mM HEPES, 2 mM Tl, pH 7.3) was loaded and fluorescence generated by thallium influx was recorded for 10 min. The signal was normalized to an untreated control.

[4] = target: T2, MC4R (Homo sapiens, UniProt P32245); assay: Competitive radioligand binding, displacement of 125I-NDP-MSH, HEK293 cells expressing hMC4R; set-up: expressed in transfected cells; settings: for fold decreased binding affinity compared to NDP-MSH: displacement of 125I-NDP-MSH; for IC50: Table 10
[5] = target: T2, MC4R; assay: AlphaScreen cAMP assay, antagonist activity (Schild, NDP-MSH) at hMC4R; type: cell-based; set-up: expressed in transfected cells; settings: Example 5
Method: (§1) Briefly, cells 70-90% confluent were dislodged with Versene (Gibco®) at 37° C. and plated 10,000 cells/well in a 384-well plate (Optiplate™) with 10 μL freshly prepared stimulation buffer (1×HBSS, 5 mM HEPES, 0.5 mM IBMX, 0.1% BSA, pH=7.4) with 0.5 μg anti-cAMP acceptor beads per well.
(§2) Following stimulation, streptavidin donor beads (0.5 μg) and biotinylated-cAMP (0.62 μmol) were added to the wells in a subdued light environment with 10 μL lysis buffer (5 mM HEPES, 0.3% Tween-20, 0.1% BSA, pH=7.4) and the plates were incubated in the dark at room temperature for an additional 2 hr.
(§3) The EC50 values represent the mean of duplicate replicates performed in at least three independent experiments. The EC50 estimates and associated standard errors (SEM) were determined by fitting the data to a nonlinear least-squares analysis using the PRISM program (v4.0, GraphPad Inc.). The ligands were assayed as TFA salts and not corrected for peptide context.

[6] = target: T2, MC4R; assay: AlphaScreen cAMP assay, inverse agonist activity at hMC4R; type: cell-based; set-up: expressed in transfected cells; settings: for hMC4R Inverse Agonist, decrease from basal signal / EC50: Table 10; for fold decreased inverse agonist apparent potency relative to AGRP: wildtype hMC4R; for EC50: apparent potency, none = no inverse agonist activity
Method: The apparent potencies were determined from the inflection point of the normalized sigmoidal dose-response curves.
as §1, §2, §3

[7] = target: T2, MC4R; assay: Competitive radioligand binding, displacement of 125I-AGRP, HEK293 cells expressing hMC4R; set-up: expressed in transfected cells; settings: for fold decreased binding affinity compared to AGRP: displacement of 125I-AGRP; for IC50: Table 10
Method: Competitive binding affinity experiments were performed on HEK-293 cells stably expressing the wildtype hMC4R. […] The assay media was carefully aspirated and cells were washed once with assay buffer. Cell were lysed with 500 μL 0.1 M NaOH and 500 μL 1% Triton X-100 for a minimum of 10 min. […] All experiments were performed with duplicate data points and in at least two independent experimental replicates. […] Concentration-response curves and IC50 values were generated and analyzed by the PRISM program (version 4.0. GraphPad Inc.) by a nonlinear regression method. The standard error of the mean (SEM) was derived from the IC50 values from at least two independent experimental replicates.

[8] = target: mMC4R (Mus musculus, UniProt P56450); set-up: expressed in transfected cells; settings: previous SAR study (ref 52); cited from earlier work
[9] = test system: free-feeding mice; assay: Mouse feeding study, intracerebroventricular (ICV) administration; type: in vivo
Method: Cannulation surgeries were performed to place a cannula into the lateral cerebral ventricle as previously reported.^23,67,76 Mice were anesthetized with a mixture of xylazine (5 mg/kg) and ketamine (100 mg/kg) administered intraperitoneal (IP) and placed in a stereotaxic apparatus (David Kopf Instruments) that was used to guide the cannula placement. […] After surgery, flunixin meglumine (FluMegluine, Clipper Distribution Company) and 0.5 mL of 0.9% saline (Hospira, Lake Forrest, Ill.) was administered subcutaneously to aid in recovery. Mice recovered for at least 7 days prior to cannula placement validation. Mice were housed individually after surgery and for the remainder of the experiments.
Cannula placement was validated by the feeding response after ICV administration of 2.5 μg of human (h)PYY3-36 (cat # H8585; Bachem), as described previously.^23,67,75-76 Mice received saline treatment and hPYY treatment on different days separated by a washout period of at least 3 days in a crossover design nocturnal feeding paradigm. In this paradigm, compound or saline is administered 2 h prior to lights out (t=0 h) and body weight and food are measured. Mice have free access to food and water. At 4 h post-administration, food is measured. A mouse with a validated properly placed cannula consumed at least 0.8 g more food after hPYY administration compared to saline administration at 4 h.
All ICV and IT administration experiments utilized a crossover design with free access to standard chow. Mice were housed in RAR supplied conventional mouse cages. […] Matching vehicle controls (3% v/v DMSO in saline and 20% solutol) were prepared in parallel. The day of compound administration, an aliquot of stock solution was diluted with saline to the desired experimental dose in 3 μL, in parallel with vehicle control. For ICV administration, the desired experimental dose (3 μL) or vehicle control (3 μL) was delivered 2 h before lights out (t=0 h). For IT administration, the desired experimental dose (5 μL) or vehicle control (5 μL) was delivered 2 h before lights out (t=0 h). Food intake and mouse weight was manually measured at t=0, 2, 4, 6, 8, 24, 48, and 72 h post-injection. Mice recovered 6-7 days between treatments to reestablish pretreatment body weight and feeding patterns.

[10] = target: T3, mMC5R (Mus musculus, UniProt P41149); assay: AlphaScreen cAMP assay, agonist and inverse agonist activity, HEK293 cells stably expressing mMC5R; type: cell-based; settings: Table 6; apparent potency at inflection point
T3 construct: expressed in transfected cells
T3 sequence (P41149 whole entry): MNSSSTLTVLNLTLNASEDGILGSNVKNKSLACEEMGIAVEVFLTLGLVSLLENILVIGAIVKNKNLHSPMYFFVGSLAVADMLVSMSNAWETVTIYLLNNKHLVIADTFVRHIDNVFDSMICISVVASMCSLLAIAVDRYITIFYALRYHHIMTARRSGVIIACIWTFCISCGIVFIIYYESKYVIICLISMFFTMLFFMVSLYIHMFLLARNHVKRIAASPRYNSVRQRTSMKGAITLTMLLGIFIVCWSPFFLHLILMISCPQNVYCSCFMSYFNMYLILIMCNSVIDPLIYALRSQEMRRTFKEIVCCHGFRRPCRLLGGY

T2 sequence (P32245 whole entry): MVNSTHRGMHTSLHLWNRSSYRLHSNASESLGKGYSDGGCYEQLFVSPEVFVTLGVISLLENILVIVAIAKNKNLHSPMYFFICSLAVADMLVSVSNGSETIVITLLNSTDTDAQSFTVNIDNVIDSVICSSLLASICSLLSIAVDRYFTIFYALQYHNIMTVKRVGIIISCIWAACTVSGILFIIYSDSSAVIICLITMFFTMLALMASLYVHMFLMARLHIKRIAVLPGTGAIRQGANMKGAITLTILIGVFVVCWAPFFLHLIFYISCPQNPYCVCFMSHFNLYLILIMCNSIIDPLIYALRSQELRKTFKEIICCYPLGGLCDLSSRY
T1 sequence (P32245 whole entry, stated change not applied): as the sequence (P32245 whole entry) above
Sequence of MC1R (Q01727 whole entry): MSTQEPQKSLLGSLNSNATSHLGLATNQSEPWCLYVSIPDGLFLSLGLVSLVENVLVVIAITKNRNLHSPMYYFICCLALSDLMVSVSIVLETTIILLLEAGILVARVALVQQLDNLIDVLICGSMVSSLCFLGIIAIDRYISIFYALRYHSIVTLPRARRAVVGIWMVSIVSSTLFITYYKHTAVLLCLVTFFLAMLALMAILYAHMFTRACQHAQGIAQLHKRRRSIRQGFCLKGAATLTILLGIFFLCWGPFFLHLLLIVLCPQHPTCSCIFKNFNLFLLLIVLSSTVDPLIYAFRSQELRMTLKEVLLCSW
Sequence of mMC4R (P56450 whole entry): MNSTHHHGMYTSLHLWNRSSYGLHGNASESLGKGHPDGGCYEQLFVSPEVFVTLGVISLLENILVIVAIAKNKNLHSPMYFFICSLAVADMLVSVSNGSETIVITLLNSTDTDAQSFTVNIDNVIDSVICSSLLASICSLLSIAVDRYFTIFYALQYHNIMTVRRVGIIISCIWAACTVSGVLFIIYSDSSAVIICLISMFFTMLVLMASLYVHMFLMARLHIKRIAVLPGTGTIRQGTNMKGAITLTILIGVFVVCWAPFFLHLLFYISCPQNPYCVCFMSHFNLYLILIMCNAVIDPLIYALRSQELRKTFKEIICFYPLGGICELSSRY

## AGRP(83-132): hypothesized biologically active form of agouti-related protein (SSRRCVRLHESCLGQQVPCCDPCATCYCRFFNAFCYCRKLGTAMNPCSRT; UniProt O00253 83-132, looked up, fragment)
[1]
  increase of 24 h food intake above saline: 77%

## H-Tyr-c[Dap-Arg-Phe-Phe-Asn-Ala-Phe-Asp]-Tyr-NH2 (H-Y[Dap]RFFNAFDY-NH2; lactam 2-9)
[2]
  EC50: 28100 nM

## c[Pro-Arg-Phe-Phe-Abu-Ala-Phe-DPro] [Peptide 4 (Example 1)]
[3]
  fold decreased thallium flux apparent potency compared to MDE3-119-10c: 5 fold
  fold selective for Kir7.1 signaling over cAMP antagonism: approximately 50 fold
[4]
  fold decreased binding affinity compared to NDP-MSH: 20 fold
[5]
  fold decreased antagonist potency relative to MDE3-119-8c at the hMC4R: 19 fold
[6]
  hMC4R Inverse Agonist, decrease from basal signal: (-15%)
  fold decreased inverse agonist apparent potency relative to AGRP: 9 fold
[7]
  fold decreased binding affinity compared to AGRP: 16 fold
[8]
  fold decreased antagonist potency compared to the Dap substitution at the mMC4R: 25 fold
[9]; 5 nmol dose
  food intake after ICV administration: observed to decrease food intake, a trend that did not achieve statistical significance
[9]; 2 and 5 nmol doses
  food intake after ICV administration: no significant food increase was observed by 8 h

## c[Pro-Arg-Phe-Phe-Ala-Ala-Phe-DPro] [Peptide 3 (Example 1)]
[6]
  hMC4R Inverse Agonist, decrease from basal signal: (-35%)

## c[Pro-Arg-Phe-Phe-Asn-Ala-Cha-DPro] [Compound 10 (Example 3)]
[10]
  EC50: 780 nM

## c[Pro-Arg-Phe-Phe-Asn-Ala-Phe-DPro] [Peptide 1 (Example 1)]
[6]
  hMC4R Inverse Agonist, decrease from basal signal: (-30%)

## c[Pro-Arg-Phe-Phe-Asn-Ala-Trp-DPro] [Compound 8 (Example 3)]
[10]
  EC50: 150 nM

## c[Pro-Arg-Phe-Phe-Asn-Ala-hPhe-DPro] [Compound 11 (Example 3)]
[10]
  EC50: 290 nM

## c[Pro-Arg-Phe-Phe-Asp-Ala-Phe-DPro] [Peptide 7 (Example 1)]
[3]
  fold decreased thallium flux apparent potency compared to MDE3-119-10c: 2 fold
  fold selective for Kir7.1 signaling over cAMP antagonism: over 500 fold
[4]
  IC50: 3600 nM
  fold decreased binding affinity compared to NDP-MSH: 130 fold
[5]
  fold decreased antagonist potency relative to MDE3-119-8c at the hMC4R: 90 fold
[6]
  hMC4R Inverse Agonist, decrease from basal signal: (-35%)
  EC50: 2000 nM
  fold decreased inverse agonist apparent potency relative to AGRP: 830 fold
[7]
  IC50: 1300 nM
  fold decreased binding affinity compared to AGRP: 100 fold

## c[Pro-Arg-Phe-Phe-DDap-Ala-Phe-DPro] [Peptide 9 (Example 1)]
[3]
  fold decreased thallium flux apparent potency compared to MDE3-119-10c: 80 fold
  fold selective for cAMP over Kir7.1 signaling: 4 fold
[6]
  hMC4R Inverse Agonist, decrease from basal signal: (-30%)

## c[Pro-Arg-Phe-Phe-Dap-Ala-Phe-DPro] [Peptide 2 (Example 1)]
[3]
  fold decreased thallium flux apparent potency compared to MDE3-119-10c: 28 fold
  fold selective for cAMP over Kir7.1 signaling: 2 fold
[6]
  hMC4R Inverse Agonist, decrease from basal signal: (-50%)
[9]; 3 nmol dose
  food intake after ICV administration vs vehicle: significant increase in food intake at 4, 6, and 8 h
[9]; free feeding male mice, doses up to 3 nmol, listed as MDE3-119-8c
  food intake after ICV administration: dose-dependent increase in food intake was observed for the first 8 h post-injection; also recorded: did not significantly alter cumulative food intake after 24 h

## c[Pro-Arg-Phe-Phe-Glu-Ala-Phe-DPro] [Peptide 8 (Example 1)]
[4]
  IC50: 2500 nM
  fold decreased binding affinity compared to NDP-MSH: 90 fold
[5]
  fold decreased antagonist potency relative to MDE3-119-8c at the hMC4R: 70 fold
[6]
  hMC4R Inverse Agonist, decrease from basal signal: (-35%)
  EC50: 1100 nM
  fold decreased inverse agonist apparent potency relative to AGRP: 450 fold
[7]
  IC50: 1400 nM
  fold decreased binding affinity compared to AGRP: 110 fold

## c[Pro-Arg-Phe-Phe-His-Ala-Phe-DPro] [Peptide 10 (Example 1)]
[4]
  fold decreased binding affinity compared to NDP-MSH: 5 fold
[6]
  hMC4R Inverse Agonist, decrease from basal signal: (-30%)
[7]
  fold decreased binding affinity compared to AGRP: 4 fold

## c[Pro-Arg-Phe-Phe-Ser-Ala-Phe-DPro] [Peptide 5 (Example 1)]
[6]
  hMC4R Inverse Agonist, decrease from basal signal: (-25%)
  EC50: 16 ± 4 nM
